The values that follow come from patent US9399645B2, “Inhibitors of HIV replication” (Boehringer Ingelheim International GmbH, priority 2011, dated 2016).

Data set [1] can be described thus: Caco-2 Permeability Assay. The note with it: human; for Papp A→B at 10 μM: apparent permeability A to B, compound at 10 μM, apical buffer pH 6.0, basolateral buffer pH 7.4, read-out: Papp (cm/sec, *10^−6). The format is in vitro ADME. An excerpt: Caco-2 Permeability Assay Caco-2 cells are purchased from Cell Culture Services as frozen instant cells at a concentration of 1*10^7 cells/vial. DMEM+glutamax-I culture media is purchased from Gibco (10569). Fetal bovine serum (FBS) is purchased from HyClone (SH30396.03). Pennicilin/Streptomycin antibiotics are purchased from Gibco (15140). MEM non-essential amino acids are purchased from Gibco (11140). Hank's balanced salt solution (HBSS) is purchased from Gibco (14025). Bovine serum albumin (BSA) is purchased from Sigma-Aldrich (A7906). MES low moisture is purchased from Sigma-Aldrich (M3671). HEPES is purchased from Sigma-Aldrich (H3375). Dimethyl Sulfoxide (DMSO) is purchased from EMD (MX1457-6). Complete DMEM media is prepared by adding 1 L of FBS, 100 mL of pen/strep and 110 mL of MEM non essential amino acids to 10 L of DMEM+glutamax-I. […] Caco-2 cells are seeded on HTS transwell 24-well plates purchased from Corning (3397). These polycarbonate membrane plates have a diameter of […] and pore size of 0.4 μm. The Caco-2 cells vial is thawed in a 37° C. water bath until only a small ice pellet is left. The vial is then transferred to the laminar flow hood and its exterior is extensively washed with 70% ethanol. The total content of the vial (2 mL) is transferred into a 50 mL tube containing 38 mL of complete DMEM. […] The seeding is done by the Hamilton star robotic station which is controlled with the Venus program. Each well will receive 600 μL of complete DMEM on its basolateral side and 200 μL of cells on its apical side. Each well receives 50 000 cells. The 24-well plates are then returned to an automated Liconic STX110 incubator set at 37° C., 5% CO2 and 100% humidity. The culture media for the cells is changed every two days except on weekends. These cells are maintained for a period of two weeks prior to the running of the permeability assay. Permeability assays are usually performed between day 15 and 18 after the initial seeding. […] Controls for the assay are mannitol for tight junction determination and Digoxin for efflux transporter (p-glycoprotein) expression. On the day of the assay, each compound is diluted to 10 μM in the buffer (apical for A to B). 6 μl of the 5 mM DMSO stock is added to 3 mL of the buffer in a 24-well 10 mL deep plate covered with a lid. The plate containing all the diluted compounds is spun for 10 min at 3000 rpm in a Rotanta 46 RSC centrifuge from Hettich to remove unsoluble compound. This dilution is used to add at the start of the incubation. Each compound is tested in duplicate. On the day of the assay, the culture media of the 24-well plate is removed and replaced with warm HBSS. The HBSS is then also removed and the Apical and Basolatral buffer are added to their respective side of the transwells. These steps are performed by the Hamilton Star robotic station. The plate is then placed in a 37° C. incubator and is left to equilibrate for 30 min. After 30 min of incubation a background sample (25 μL from each well) is taken from the receiver side (Basolateral for A to B), and replenished with warm buffer. These samples and all others afterwards are kept in a 96-well 1 mL plate. To start the assay, the donor compartment (apical for A to B) is emptied and replaced with new buffer containing the compound at 10 μM. Once the compounds are added, the plate is returned to the 37° C. incubator and the timer is started. In order to determine how much compound is actually added to each well, a 50 μL sample is taken from each compound dilution, this sample is refered to as the load. These steps and the following are performed by the Tecan Freedom EVO robotic station controlled via the Gemini software. For A-to-B Assay: Samples (190 μL) are taken from each basolateral (receiver) chamber at time points 0, 60, 120 and 180 min or at time points 0, 30, 60 and 90 min. From the 190 μL taken, 50 μL is transferred to the receiving plate and 140 μL is discarded.
On the technique in general: Caco-2 cells form a polarised layer with tight junctions and transporters.

In a further data set the test system is HIV-1. Nature of the data set: C8166 HIV-1 Luciferase Assay (EC50). The format is cell-based. The note with it: Human immunodeficiency virus 1, C8166, 72 h. How it is done:
C8166 HIV-1 Luciferase Assay (Ec50)
The assay used to measure inhibition of HIV replication is as described in WO 2004/050643, pages 73-75, incorporated herein by reference, with the following modifications:
Serial dilutions of HIV-1 inhibitors are prepared in complete media from DMSO stock solutions. Eleven serial dilutions of desired concentration are prepared in a 1 mL deep well titer plate (96 wells). The 12th well contains complete media with no inhibitor and serves as the positive control. All samples contain the same concentration of DMSO (<0.1% DMSO). Inhibitor is added, to triplicate wells, of a 96 well tissue culture treated clear view black microtiter plate (Corning Costar catalogue #3904). The total volume per well is 200 μL of media containing the cells and inhibitor. The last row is reserved for uninfected C8166 LTRIuc cells to serve as the background blank control and the first row is media alone.
Count C8166 LTRIuc cells and place in a minimal volume of complete RPMI 1640 in a tissue culture flask (ex. 30×10^6 cells in 10 mL media/25 cm^2 flask). Infect cells with HIV-1 at a moi of 0.005. Incubate cells for 1.5 h at 37° C. on a rotating rack in a 5% CO2 incubator. Resuspend cells in complete RPMI to give a final concentration of 25,000-cells/well. Add cells to wells of 96 well microtiter plate containing inhibitors. Add 25,000 uninfected C8166-LTRIuc cells/well in 200 μL complete RPMI to last row for background control. Incubate cells at 37° C. in 5% CO2 incubator for 3 days.
50 μL Steady Glo (luciferase substrate T112=5 hours Promega catalogue # E2520) is added to each well of the 96 well plate. The relative light units (RLU) of luciferase are determined using a luminescence plate reader. The calculated % inhibition values are used to determine EC50, slope factor (n) and maximum inhibition (Imax).

A word on the EC50: it is the midpoint of the concentration-response curve. Low values mean higher potency in that assay, high ones lower potency in that assay. As for `CC[C@H]1C[C@@H](n2c(=O)nc(-c3cnn(C)c3)c3oc4cnc(-c5cnn(C)c5)cc4c32)CCCO1` [Compound 1087], in data set [1], the Papp A→B at 10 μM worked out at 23.1 ×10⁻⁶ cm/s. In addition, it took 9.7 nM to reach a half-maximal effect in the data set on HIV-1 (EC50).
On the same counts, the results for `CC[C@H]1C[C@@H](n2c(=O)nc(-c3cnn(C)c3)c3oc4c(F)cc(-c5cn(C)cn5)cc4c32)CCO1` [Compound 1097] are 37.1 ×10⁻⁶ cm/s and 3.9 nM.
For `CNc1ccc(-c2nc(=O)n(CCC3CCCO3)c3c2oc2c(F)cc(-c4cnn(C)c4)cc23)cn1` (centres unmarked) [Compound 1030], in that order: 6.1 ×10⁻⁶ cm/s and 10.2 nM.
For `CC[C@H]1C[C@@H](n2c(=O)nc(-c3ccccn3)c3oc4ccc(-c5cn(C)cn5)nc4c32)CCO1` [Compound 1102], in that order: 24.6 ×10⁻⁶ cm/s and 57 nM.
Turning to `CC[C@H]1C[C@@H](n2c(=O)nc(-c3cnn(C)c3)c3oc4ccc(-n5cncn5)nc4c32)CCO1` [Compound 1013], the Papp A→B at 10 μM in data set [1] is 16.8 ×10⁻⁶ cm/s. For the same molecule, the EC50 in the data set on HIV-1 was 98 nM.
For `CC[C@H]1C[C@@H](n2c(=O)nc(-c3cnn(C)c3)c3oc4cc(F)c(-c5cnn(C)c5)cc4c32)CCO1` [Compound 1042], in that order: 23.4 ×10⁻⁶ cm/s and 6.9 nM.
Molecule `CC[C@H]1C[C@@H](n2c(=O)nc(-c3ccc(NC)nc3)c3oc4ncc(-c5cnn(C)c5)cc4c32)CCO1` [Compound 1069] registered an EC50 in the data set on HIV-1 of 7.8 nM.
Take `CCn1cc(-c2cnc3oc4c(-c5ccc(NC)nc5)nc(=O)n(CCC5CCCCO5)c4c3c2)cn1` (centres unmarked) [Compound 1067]: in data set [1], the Papp A→B at 10 μM turned out to be 5.3 ×10⁻⁶ cm/s. A half-maximal response with HIV-1 (EC50) required 40 nM.
On the same counts, the results for `CC[C@H]1C[C@@H](n2c(=O)nc(-c3cnn(C)c3)c3oc4ccc(-c5cccnc5)cc4c32)CCO1` [Compound 1040] are 19.2 ×10⁻⁶ cm/s and 12.8 nM.
For `CC[C@H]1C[C@@H](n2c(=O)nc(-c3cnn(C)c3)c3oc4cnc(-c5cnn(CCOC)c5)cc4c32)CCO1` [Compound 1085], in that order: 19.2 ×10⁻⁶ cm/s and 120 nM.
Turning to `CC[C@H]1C[C@@H](n2c(=O)nc(-c3cnn(C)c3)c3oc4cc(OC)c(-c5cnn(C)c5)cc4c32)CCO1` [Compound 1055], in data set [1], the Papp A→B at 10 μM amounted to 8.42 ×10⁻⁶ cm/s. In the data set on HIV-1, this molecule showed an EC50 of 3.6 nM.
For `CC[C@H]1C[C@@H](n2c(=O)nc(-c3cnn(C)c3)c3oc4c(C#N)c(C)c(-c5cnn(C)c5)cc4c32)CCO1` [Compound 1060], in that order: 13 ×10⁻⁶ cm/s and 140 nM.
As to `CC[C@H]1C[C@@H](n2c(=O)nc(-c3cnn(C)c3)c3oc4ncc(-c5cccnc5)cc4c32)CCO1` [Compound 1083], in data set [1], the Papp A→B at 10 μM came to 12.5 ×10⁻⁶ cm/s. In the data set on HIV-1, the midpoint of the response, the EC50, lay at 41 nM.
As to `CC[C@H]1C[C@@H](n2c(=O)nc(-c3cnn(C)c3)c3oc4c(OC)cc(-c5cnn(C)c5)cc4c32)CCO1` [Compound 1057], in data set [1], the Papp A→B at 10 μM was determined as 14.9 ×10⁻⁶ cm/s. For the same molecule, the EC50 in the data set on HIV-1 is 2.2 nM.
Regarding `CC[C@H]1C[C@@H](n2c(=O)nc(-c3cnn(C)c3)c3oc4cc(C#N)c(-c5cnn(C)c5)cc4c32)CCO1` [Compound 1049], in the data set on HIV-1, the EC50 was found to be 15.1 nM.
`CC[C@H]1C[C@@H](n2c(=O)nc(-c3cnn(C)c3)c3oc4ccc(-c5cn(C)cn5)nc4c32)C[C@@H](C)O1` [Compound 1095]: in data set [1], the Papp A→B at 10 μM is 39.8 ×10⁻⁶ cm/s. In the data set on HIV-1, the concentration for a half-maximal effect (EC50) came to 8.6 nM.
On the same counts, the results for `CC[C@H]1C[C@@H](n2c(=O)nc(-c3cnn(C)c3)c3oc4ccc(-c5cn(C)cn5)cc4c32)CCO1` [Compound 1091] are 7.9 ×10⁻⁶ cm/s and 15.4 nM.
On the same counts, the results for `CC[C@H]1C[C@@H](n2c(=O)nc(-c3cnn(C)c3)c3oc4ccc(-c5cnn(CC)c5)cc4c32)CCO1` [Compound 1041] are 26.9 ×10⁻⁶ cm/s and 6.6 nM.
For `CC[C@H]1C[C@@H](n2c(=O)nc(-c3ccc(OC)nc3)c3oc4ccc(-c5cn(C)cn5)nc4c32)CCO1` [Compound 1100], in that order: 29.3 ×10⁻⁶ cm/s and 6.2 nM.
Consider `CC[C@H]1C[C@@H](n2c(=O)nc(-c3cnn(C)c3)c3oc4c(C)nc(-c5cnn(C)c5)cc4c32)CCO1` [Compound 1082], for which the Papp A→B at 10 μM in data set [1] came to 18.9 ×10⁻⁶ cm/s. Further, in the data set with HIV-1, the EC50 is 3.3 nM.
On the same counts, the results for `C[C@@H]1C[C@H](n2c(=O)nc(-c3cnn(C)c3)c3oc4ccc(-c5cnn(C)c5)cc4c32)C[C@H](C)O1` [Compound 1039] are 16.8 ×10⁻⁶ cm/s and 36 nM.
On the same counts, the results for `CNc1ccc(-c2nc(=O)n(CCC3CCCO3)c3c2oc2ncc(-c4cnco4)cc23)cn1` (centres unmarked) [Compound 1066] are 8.3 ×10⁻⁶ cm/s and 110 nM.
For `CC[C@H]1C[C@@H](n2c(=O)nc(-c3cnn(C)c3)c3oc4ccc(-c5ccn(C)n5)nc4c32)CCO1` [Compound 1003], in that order: 22.2 ×10⁻⁶ cm/s and 6.4 nM.
Consider `CC[C@H]1C[C@@H](n2c(=O)nc(-c3cnn(C)c3)c3oc4cc(C#N)c(-c5cccnc5)cc4c32)CCO1` [Compound 1051], for which the Papp A→B at 10 μM in data set [1] worked out at 15.4 ×10⁻⁶ cm/s. Also, the EC50 in the data set on HIV-1 came to 220 nM.
For `CC[C@H]1C[C@@H](n2c(=O)nc(-c3cnn(C)c3)c3oc4cnc(-c5cn(C)cn5)cc4c32)C[C@@H](C)O1` [Compound 1103], in that order: 18.5 ×10⁻⁶ cm/s and 56 nM.
On the same counts, the results for `CNc1ccc(-c2nc(=O)n(CCC3CCCO3)c3c2oc2ccc(-c4cnn(C(C)C)c4)cc23)cn1` (centres unmarked) [Compound 1025] are 8.1 ×10⁻⁶ cm/s and 350 nM.
For `CC[C@H]1C[C@@H](n2c(=O)nc(-c3cnn(C)c3)c3oc4ccc(-c5cn(C)cn5)nc4c32)CCO1` [Compound 1014], in that order: 20.7 ×10⁻⁶ cm/s and 5.2 nM.
Turning to `CC[C@H]1C[C@@H](n2c(=O)nc(-c3cnn(C)c3)c3oc4ccc(-c5cn(C)nc5C)nc4c32)CCO1` [Compound 1002], the Papp A→B at 10 μM in data set [1] is 14.5 ×10⁻⁶ cm/s. Also, in the data set on HIV-1, the 50% effective concentration (EC50) was 8.6 nM.
`CC[C@H]1C[C@@H](n2c(=O)nc(-c3cnn(C)c3)c3oc4cnc(-c5cnn(C)c5)cc4c32)CCO1` [Compound 1076] came in with a Papp A→B in data set [1] of 17.9 ×10⁻⁶ cm/s. Moreover, in the data set on HIV-1, the EC50 was 5.9 nM.
